Data taken from patent US8987481B1, “Method for isolation of bulk anthocyanidins and other bioactives” (priority 2013, dated 2015).

Assay: Storage stability of isolated anthocyanidins
Type: physicochemical
Experimental: The isolated anthos are stable when stored in amber bottles under argon at −20° C. […] However, when bound to cellulose, these compounds can be stabilized for a long period of time. Edible cellulose formulations that are used routinely in beverage and food industries are commercially available. Therefore, anthos isolated by the method described here can be readily stabilized with edible cellulose or pectin or other edible materials and used in beverages and foods to provide natural colors, as well as used as nutraceuticals and provide health benefits due to known antioxidant, antiproliferative and anticancer activities of anthos.

## anthocyanins
  stability in solution form: highly unstable
